Laboratory results reported in US20240109930A1, “TRIAZOLYL-METHYL SUBSTITUTED ALPHA-D-GALACTOPYRANOSIDE DERIVATIVES” (Idorsia Pharmaceuticals Ltd, priority 2021, published 2024).

Tests used:
human Gal-3 (hGal-3) = human Gal-3 (hGal-3) (Homo sapiens (Human), UniProt P17931); test: Competitive binding assay: biotinylated hGal-3 binding to microplate-adsorbed asialofetuin (ASF); conditions: IC50 values from several measurements given as geomean
Procedure: (§1) The inhibitory activity of compounds is determined in competitive binding assays. This spectrophotometric assay measures the binding of biotinylated human Gal-3 (hGal-3) or human Gal-1 (hGal-1), respectively, to a microplate-adsorbed glycoprotein, asialofetuin (ASF) (Proc Natl Acad Sci USA. 2013 Mar. 26; 110(13):5052-7.). Alternatively, and preferably, a human Gal-1 version in which all six cysteines are substituted by serines may be used.
(§2) Briefly, compounds are serially diluted in DMSO (working dilutions). ASF-coated 384well plates are supplemented with 22.8 μL/well of biotinylated hGal-3 or hGal-1 in assay buffer (i.e. 300-1000 ng/mL biotinylated hGal-3 or hGal-1) to which 1.2 μL of compound working dilutions are added and mixed.
(§3) Plates are incubated for 3 hours at 4° C., then washed with cold assay buffer (3×50 uL), incubated for 1 hour with 25 μL/well of a streptavidin-peroxidase solution (diluted in assay buffer to 80 ng/mL) at 4° C., followed by further washing steps with assay buffer (3×50 uL). Finally, 25 μL/well of ABTS substrate is added.
(§4) The calculated IC50 values may fluctuate depending on the daily assay performance. Fluctuations of this kind are known to those skilled in the art. IC50 values from several measurements are given as geomean values.

human Gal-1 (hGal-1) = human Gal-1 (hGal-1) (Homo sapiens, UniProt P09382, C131S/C17S/C43S/C61S/C89S); test: Competitive binding assay: biotinylated hGal-1 binding to microplate-adsorbed asialofetuin (ASF); conditions: IC50 values from several measurements given as geomean
Procedure: as §1, §2, §3, §4

Chain of human Gal-3 (hGal-3) (P17931 whole entry): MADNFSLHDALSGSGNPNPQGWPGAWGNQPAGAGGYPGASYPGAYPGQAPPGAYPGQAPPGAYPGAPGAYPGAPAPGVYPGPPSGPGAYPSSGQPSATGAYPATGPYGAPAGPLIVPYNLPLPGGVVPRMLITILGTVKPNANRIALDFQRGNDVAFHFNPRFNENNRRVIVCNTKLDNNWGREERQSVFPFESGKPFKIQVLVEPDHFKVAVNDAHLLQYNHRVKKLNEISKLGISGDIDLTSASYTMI

Row | Structure (SMILES) | IC50 (human Gal-3 (hGal-3)) [nM] | IC50 (human Gal-1 (hGal-1)) [nM]
1 | CO[C@@H]1[C@@H](n2cc(-c3ccc(Cl)c(F)c3F)nn2)[C@@H](O)[C@@H](CO)O[C@@H]1Cc1cn([C@@H]2COC[C@H]2F)nn1 (single isomer, unassigned) [Example 2.1.74.C, (2R,3R,4S,5R,6R)-4-(4-(4-chloro-2,3-difluorophenyl)-1H-1,2,3-triazol-1-yl)-6-((1-((3R*,4S*)-4-fluorotetrahydrofuran-3-yl)-1H-1,2,3-triazol-4-yl)methyl)-2-(hydroxymethyl)-5-methoxytetrahydro-2H-pyran-3-ol] | 60 | 3940
2 | CO[C@@H]1[C@@H](n2cc(-c3ccc(Cl)c(F)c3F)nn2)[C@@H](O)[C@@H](CO)O[C@@H]1Cc1cn([C@@H]2COC[C@H]2F)nn1 (single isomer, unassigned) [Example 2.1.74.D, (2R,3R,4S,5R,6R)-4-(4-(4-chloro-2,3-difluorophenyl)-1H-1,2,3-triazol-1-yl)-6-((1-((3R*,4S*)-4-fluorotetrahydrofuran-3-yl)-1H-1,2,3-triazol-4-yl)methyl)-2-(hydroxymethyl)-5-methoxytetrahydro-2H-pyran-3-ol] | 70 | 3540
3 | CO[C@@H]1[C@@H](n2cc(-c3ccc(Cl)c(F)c3F)nn2)[C@@H](O)[C@@H](CO)O[C@@H]1Cc1cn(C2(C(F)F)CCOC2)nn1 (single isomer, unassigned) [Example 2.1.78.B] | 20 | 240
4 | CO[C@@H]1[C@@H](n2cc(-c3ccc(Cl)c(F)c3F)nn2)[C@@H](O)[C@@H](CO)O[C@@H]1Cc1cn(C2CCOCC2(F)F)nn1 (single isomer, unassigned) [Example 2.1.89.B] | 20 | 870
5 | CO[C@@H]1[C@@H](n2cc(-c3ccc(F)c(F)c3F)nn2)[C@@H](O)[C@@H](CO)O[C@@H]1Cc1cn([C@@H]2CCOC[C@H]2F)nn1 (single isomer, unassigned) [Example 3.1.66.C, (2R,3R,4S,5R,6R)-6-((1-((3S*,4R*)-3-fluorotetrahydro-2H-pyran-4-yl)-1H-1,2,3-triazol-4-yl)methyl)-2-(hydroxymethyl)-5-methoxy-4-(4-(2,3,4-trifluorophenyl)-1H-1,2,3-triazol-1-yl)tetrahydro-2H-pyran-3-ol] | 40 | 270
6 | CO[C@@H]1[C@@H](n2cc(-c3ccc(F)c(F)c3F)nn2)[C@@H](O)[C@@H](CO)O[C@@H]1Cc1cn([C@@H]2CCOC[C@H]2F)nn1 (single isomer, unassigned) [Example 3.1.66.D, (2R,3R,4S,5R,6R)-6-((1-((3S*,4R*)-3-fluorotetrahydro-2H-pyran-4-yl)-1H-1,2,3-triazol-4-yl)methyl)-2-(hydroxymethyl)-5-methoxy-4-(4-(2,3,4-trifluorophenyl)-1H-1,2,3-triazol-1-yl)tetrahydro-2H-pyran-3-ol] | 20 | 310
7 | CO[C@@H]1[C@@H](n2cc(-c3ccc(C)c(F)c3F)nn2)[C@@H](O)[C@@H](CO)O[C@@H]1Cc1cn([C@@H]2COCC[C@H]2O)nn1 [Ex 1.1.1.] | 50 | 2610
8 | CO[C@@H]1[C@@H](n2cc(-c3ccc(C)c(F)c3F)nn2)[C@@H](O)[C@@H](CO)O[C@@H]1Cc1cn([C@@H]2CCC[C@H]2O)nn1 [Ex 1.1.2.] | 40 | 6460
9 | CO[C@@H]1[C@@H](n2cc(-c3ccc(C)c(F)c3F)nn2)[C@@H](O)[C@@H](CO)O[C@@H]1Cc1cn(C2(CO)CCCC2)nn1 [Ex 1.1.5.] | 50 | 2570
10 | COCC1(n2cc(C[C@H]3O[C@H](CO)[C@H](O)[C@H](n4cc(-c5ccc(C)c(F)c5F)nn4)[C@H]3OC)nn2)CC1 [Ex 1.1.7.] | 60 | 5100
11 | CO[C@@H]1[C@@H](n2cc(-c3ccc(C)c(F)c3F)nn2)[C@@H](O)[C@@H](CO)O[C@@H]1Cc1cn(C(C)(C)CO)nn1 [Ex 1.1.9.] | 70 | 44000
12 | CO[C@@H]1[C@@H](n2cc(-c3ccc(C)c(F)c3F)nn2)[C@@H](O)[C@@H](CO)O[C@@H]1Cc1cn(C2(CO)CCC2)nn1 [Ex 1.1.11.] | 40 | 2090

More lines, in order of falling IC50 (human Gal-3 (hGal-3)), values ahead:

Row | IC50 (human Gal-3 (hGal-3)) [nM] | IC50 (human Gal-1 (hGal-1)) [nM] | Structure (SMILES)
13 | 60 | 1200 | CO[C@@H]1[C@@H](n2cc(-c3ccc(Cl)c(F)c3F)nn2)[C@@H](O)[C@@H](CO)O[C@@H]1Cc1cn(C2COCCC2(F)F)nn1 (single isomer, unassigned) [Example 2.1.73.B]
14 | 50 | 4010 | CO[C@@H]1[C@@H](n2cc(-c3ccc(C)c(F)c3F)nn2)[C@@H](O)[C@@H](CO)O[C@@H]1Cc1cn(C23CCC(O)(CC2)CC3)nn1 [Ex 1.1.8.]
15 | 50 | 4150 | CO[C@@H]1[C@@H](n2cc(-c3ccc(C)c(F)c3F)nn2)[C@@H](O)[C@@H](CO)O[C@@H]1Cc1cn(C23CC(C2)C3)nn1 [Ex 1.1.12.]
16 | 40 | 1620 | CO[C@@H]1[C@@H](n2cc(-c3ccc(Cl)c(F)c3F)nn2)[C@@H](O)[C@@H](CO)O[C@@H]1Cc1cn([C@@H]2COC[C@@H]2F)nn1 (single isomer, unassigned) [Example 2.1.74.B, (2R,3R,4S,5R,6R)-4-(4-(4-chloro-2,3-difluorophenyl)-1H-1,2,3-triazol-1-yl)-6-((1-((3R*,4R*)-4-fluorotetrahydrofuran-3-yl)-1H-1,2,3-triazol-4-yl)methyl)-2-(hydroxymethyl)-5-methoxytetrahydro-2H-pyran-3-ol]
17 | 40 | 360 | CO[C@@H]1[C@@H](n2cc(-c3ccc(Cl)c(F)c3F)nn2)[C@@H](O)[C@@H](CO)O[C@@H]1Cc1cn(C2(C(F)F)CCOC2)nn1 (single isomer, unassigned) [Example 2.1.78.A]
18 | 40 | 2270 | CO[C@@H]1[C@@H](n2cc(-c3ccc(Cl)c(F)c3F)nn2)[C@@H](O)[C@@H](CO)O[C@@H]1Cc1cn([C@@H]2CC[C@H]2F)nn1 (single isomer, unassigned) [Example 2.1.88.D, (2R,3R,4S,5R,6R)-4-(4-(4-chloro-2,3-difluorophenyl)-1H-1,2,3-triazol-1-yl)-6-((1-((1R*,2R*)-2-fluorocyclobutyl)-1H-1,2,3-triazol-4-yl)methyl)-2-(hydroxymethyl)-5-methoxytetrahydro-2H-pyran-3-ol]
19 | 40 | 3150 | CO[C@@H]1[C@@H](n2cc(-c3ccc(C)c(F)c3F)nn2)[C@@H](O)[C@@H](CO)O[C@@H]1Cc1cn([C@H]2CCC[C@@H]2O)nn1 [Ex 1.1.3.]
20 | 40 | 2570 | CO[C@@H]1[C@@H](n2cc(-c3ccc(C)c(F)c3F)nn2)[C@@H](O)[C@@H](CO)O[C@@H]1Cc1cn(C2(CO)CC2)nn1 [Ex 1.1.4.]
21 | 40 | 2210 | CO[C@@H]1[C@@H](n2cc(-c3ccc(C)c(F)c3F)nn2)[C@@H](O)[C@@H](CO)O[C@@H]1Cc1cn(C2(C)COC2)nn1 [Ex 1.1.6.]
22 | 30 | 590 | CO[C@@H]1[C@@H](n2cc(-c3ccc(Cl)c(F)c3F)nn2)[C@@H](O)[C@@H](CO)O[C@@H]1Cc1cn(C2(C(F)(F)F)CCOC2)nn1 (single isomer, unassigned) [Example 2.1.77.B]
23 | 30 | 1740 | CO[C@@H]1[C@@H](n2cc(-c3ccc(Cl)c(F)c3F)nn2)[C@@H](O)[C@@H](CO)O[C@@H]1Cc1cn(C2CCCCC2(F)F)nn1 (single isomer, unassigned) [Example 2.1.80.B]
24 | 30 | 920 | CO[C@@H]1[C@@H](n2cc(-c3ccc(Cl)c(F)c3F)nn2)[C@@H](O)[C@@H](CO)O[C@@H]1Cc1cn([C@@H]2CC[C@@H]2F)nn1 (single isomer, unassigned) [Example 2.1.88.B, (2R,3R,4S,5R,6R)-4-(4-(4-chloro-2,3-difluorophenyl)-1H-1,2,3-triazol-1-yl)-6-((1-((1R*,2S*)-2-fluorocyclobutyl)-1H-1,2,3-triazol-4-yl)methyl)-2-(hydroxymethyl)-5-methoxytetrahydro-2H-pyran-3-ol]
25 | 30 | 1450 | CO[C@@H]1[C@@H](n2cc(-c3ccc(C)c(F)c3F)nn2)[C@@H](O)[C@@H](CO)O[C@@H]1Cc1cn(C2(C)CCC2)nn1 [Ex 1.1.13.]
26 | 20 | 1020 | CO[C@@H]1[C@@H](n2cc(-c3ccc(Cl)c(F)c3F)nn2)[C@@H](O)[C@@H](CO)O[C@@H]1Cc1cn(C2CCCCC2(F)F)nn1 (single isomer, unassigned) [Example 2.1.80.A]
27 | 10 | 450 | CO[C@@H]1[C@@H](n2cc(-c3ccc(Cl)c(F)c3F)nn2)[C@@H](O)[C@@H](CO)O[C@@H]1Cc1cn([C@@H]2COC[C@@H]2F)nn1 (single isomer, unassigned) [Example 2.1.74.A, (2R,3R,4S,5R,6R)-4-(4-(4-chloro-2,3-difluorophenyl)-1H-1,2,3-triazol-1-yl)-6-((1-((3R*,4R*)-4-fluorotetrahydrofuran-3-yl)-1H-1,2,3-triazol-4-yl)methyl)-2-(hydroxymethyl)-5-methoxytetrahydro-2H-pyran-3-ol]
28 | 10 | 100 | CO[C@@H]1[C@@H](n2cc(-c3ccc(Cl)c(F)c3F)nn2)[C@@H](O)[C@@H](CO)O[C@@H]1Cc1cn(C2CCOCC2(F)F)nn1 (single isomer, unassigned) [Example 2.1.89.A]
